“Also recorded” adds a separate entry of the source.
What was measured:
Format in all cases: in vivo, human
[1] = test system: plasma c-KIT (s-c-Kit); experiment: Plasma c-KIT ELISA, baseline vs cycle 3 day 1 (C3D1), HCC patients
Description: Plasma samples were obtained from patients at the time of screening, C3D1, and at the end of treatment visit.
All six assays were sandwich immunoassays obtained from commercial sources. All assays were performed according to the manufacturers' protocols, as summarized below. All samples were assayed in duplicate and the average value was used for correlative analysis.
ELISA kits for VEGF (cat #DVE00), s-VEGFR-2 (cat #DVR200), HGF (cat #DHG00), and c-KIT (cat #DSCR00) were obtained from R&D Systems.
A monoclonal capture antibody specific to the target protein was provided pre-coated in microplate wells. Appropriately diluted samples and standards were pipetted into the wells, allowing capture of the target protein by the immobilized antibodies. Unbound sample was washed away, and a horseradish peroxidase-conjugated antibody also specific for the target protein was added to the wells. Wells were washed again, and a substrate solution was added to each well. The colored reaction product was measured spectrophotometrically and was translated to the quantity (pg/mL or ng/mL) of biomarker protein in the sample by use of a simultaneously generated standard curve.

[2] = test system: plasma HGF; experiment: Plasma HGF ELISA, baseline vs C3D1, HCC patients
[3] = test system: plasma Ras p21; experiment: Plasma Ras p21 ELISA, baseline vs C3D1, HCC patients; settings: for Ras p21 Δ from BL (e) / mean change in sorafenib arm: C3D1, mean of per-subject absolute change, p vs placebo 0.046
Description: ELISA kits for Ras p21 (cat #06490009) were from Oncogene Science Biomarker Group, part of Siemens Diagnostics, Cambridge, Mass. This assay detects all forms of circulating Ras p21 (H-Ras, N-Ras, and […]).
After washing, a streptavidin-horseradish peroxidase conjugate was added.

[4] = test system: plasma VEGF; experiment: Plasma VEGF ELISA, baseline vs C3D1, HCC patients
[5] = test system: plasma Ang2; experiment: Plasma Ang2 level, baseline vs C3D1, HCC patients
[6] = test system: plasma bFGF; experiment: Plasma bFGF level, baseline vs C3D1, HCC patients
[7] = test system: plasma EGF; experiment: Plasma EGF level, baseline vs C3D1, HCC patients
[8] = test system: plasma IGF-2; experiment: Plasma IGF-2 level, baseline vs C3D1, HCC patients
[9] = test system: hepatocellular carcinoma (HCC); experiment: Overall survival / time to progression in placebo-controlled HCC trial (SHARP), Cox multivariate analysis
From the text: Overall survival (OS) is defined as the time from randomization to death due to any cause. Overall survival (OS) of subjects alive at the time of analysis will be censored at their last date of follow-up.
Time to progression (TTP) is defined as the time from randomization to disease progression (radiological only). Patients without tumor progression at the time of analysis will be censored at their last date of tumor evaluation.

[10] = plasma level, in response to sorafenib treatment
[11] = sorafenib arm, C3D1, mean of per-subject absolute change, p vs placebo <0.0001
[12] = sorafenib-treated HCC patients, C3D1 vs baseline

Q: Which “c-KIT Mean change in sorafenib arm” value [1, 10] does the source give for `CNC(=O)c1cc(Oc2ccc(NC(=O)Nc3ccc(Cl)c(C(F)(F)F)c3)cc2)ccn1` [Sorafenib] here?
A: −33.9%

Q: What about the “c-KIT Δ from BL (e)” value [1, 11] of the same molecule?
A: -4.5 ng/mL

Q: What about the “c-KIT Mean (d)” value ([1]; sorafenib arm, C3D1, baseline mean 12.2) of the same molecule?
A: 8.6 ng/mL

Q: What about the “Direction of change of plasma c-KIT in response to sorafenib” value [1, 12] of the same molecule?
A: attenuated; also recorded: decrease

Q: What about the “median absolute change of plasma HGF levels” value ([2]; intra-patient sorafenib-associated C3D1 change compared to baseline) of the same molecule?
A: -294.02 pg/mL

Q: And the “HGF Mean change in sorafenib arm” value [2, 10]?
A: −7.4%

Q: What about the “HGF Δ from BL (e)” value [2, 11] of the same molecule?
A: -285.0 pg/mL

Q: And the “HGF Mean (d)” value ([2]; sorafenib arm, C3D1, baseline mean 2630.0)?
A: 2220.3 pg/mL

Q: What about the “Direction of change of plasma HGF in response to sorafenib” value [2, 12] of the same molecule?
A: attenuated; also recorded: decrease

Q: What about the “Ras p21 Δ from BL (e) / mean change in sorafenib arm” value ([3]; sorafenib arm) of the same molecule?
A: -259.8 pg/mL

Q: What about the “Ras p21 Δ from BL (e) / mean change in sorafenib arm” value ([3]; sorafenib arm, listed as sorafenib) of the same molecule?
A: -259.8 pg/mL

Q: What about the “Ras p21 Mean (d)” value ([3]; sorafenib arm, C3D1, baseline mean 2115.7) of the same molecule?
A: 1144.7 pg/mL

Q: And the “Direction of change of plasma Ras p21 in response to sorafenib” value [3, 12]?
A: attenuated; also recorded: decrease

Q: And the “VEGF Mean change in sorafenib arm” value [4, 10]?
A: +195.7%

Q: What about the “VEGF Δ from BL (e)” value ([4]; sorafenib arm, C3D1, mean of per-subject absolute change, p vs placebo 0.010) of the same molecule?
A: 66.8 pg/mL

Q: What about the “VEGF Mean (d)” value ([4]; sorafenib arm, C3D1, baseline mean 100.7) of the same molecule?
A: 170.1 pg/mL

Q: And the “Direction of change of plasma VEGF in response to sorafenib” value [4, 12]?
A: elevated; also recorded: increase

Q: What about the “Ang2 Δ from BL (e)” value [5, 11] of the same molecule?
A: -293.0 pg/mL

Q: What about the “Ang2 Mean (d)” value ([5]; sorafenib arm, C3D1, baseline mean 7510.0) of the same molecule?
A: 6456.4 pg/mL

Q: What about the “Direction of change of plasma Ang2 in sorafenib” value [5, 12] of the same molecule?
A: attenuated and remain unchanged and does not change significantly and None

Q: What about the “bFGF Δ from BL (e)” value ([6]; sorafenib arm, C3D1, mean of per-subject absolute change, p vs placebo 0.196) of the same molecule?
A: 2.5 pg/mL

Q: What about the “Direction of change of plasma bFGF in sorafenib” value [6, 12] of the same molecule?
A: None

Q: What about the “EGF Δ from BL (e)” value ([7]; sorafenib arm, C3D1, mean of per-subject absolute change, p vs placebo 0.240) of the same molecule?
A: -8.9 pg/mL

Q: What about the “EGF Mean (d)” value ([7]; sorafenib arm, C3D1, baseline mean 61.8) of the same molecule?
A: 53.4 pg/mL

Q: And the “Direction of change of plasma EGF in sorafenib” value [7, 12]?
A: decreases; also recorded: Mixed

Q: And the “IGF-2 Mean change in sorafenib” value [8, 10]?
A: −11.3%

Q: What about the “IGF-2 Δ from BL (e)” value ([8]; sorafenib arm, C3D1, mean of per-subject absolute change, p vs placebo 0.145) of the same molecule?
A: -129.4 ng/mL

Q: What about the “IGF-2 Mean (d)” value ([8]; sorafenib arm, C3D1, baseline mean 938.8) of the same molecule?
A: 847.9 ng/mL

Q: What about the “Direction of change of plasma IGF-2 in sorafenib” value [8, 12] of the same molecule?
A: decreases

Q: What about the “time to progression and/or overall survival compared to placebo treated subjects” value ([9]; HCC patients) of the same molecule?
A: increases

Q: And the “Treatment HR for OS” value ([9]; multivariate analysis of all patients, sorafenib vs placebo, P-value 0.043)?
A: 0.779
